Publication PMC10648541, “Design, Synthesis, and Antiproliferative Activity of Selective Histone Deacetylases 6 Inhibitors Containing a Tetrahydropyridopyrimidine Scaffold” (Molecules, 2023)

Experiments:
HDAC6 = target: T1, HDAC6 (Homo sapiens, UniProt Q9UBN7); test: In vitro HDAC enzyme assay (Reaction Biology Corporation), HDAC6; type: biochemical
T1 construct: purchased Reaction Biology Corporation
T1 sequence (Q9UBN7 1-1215): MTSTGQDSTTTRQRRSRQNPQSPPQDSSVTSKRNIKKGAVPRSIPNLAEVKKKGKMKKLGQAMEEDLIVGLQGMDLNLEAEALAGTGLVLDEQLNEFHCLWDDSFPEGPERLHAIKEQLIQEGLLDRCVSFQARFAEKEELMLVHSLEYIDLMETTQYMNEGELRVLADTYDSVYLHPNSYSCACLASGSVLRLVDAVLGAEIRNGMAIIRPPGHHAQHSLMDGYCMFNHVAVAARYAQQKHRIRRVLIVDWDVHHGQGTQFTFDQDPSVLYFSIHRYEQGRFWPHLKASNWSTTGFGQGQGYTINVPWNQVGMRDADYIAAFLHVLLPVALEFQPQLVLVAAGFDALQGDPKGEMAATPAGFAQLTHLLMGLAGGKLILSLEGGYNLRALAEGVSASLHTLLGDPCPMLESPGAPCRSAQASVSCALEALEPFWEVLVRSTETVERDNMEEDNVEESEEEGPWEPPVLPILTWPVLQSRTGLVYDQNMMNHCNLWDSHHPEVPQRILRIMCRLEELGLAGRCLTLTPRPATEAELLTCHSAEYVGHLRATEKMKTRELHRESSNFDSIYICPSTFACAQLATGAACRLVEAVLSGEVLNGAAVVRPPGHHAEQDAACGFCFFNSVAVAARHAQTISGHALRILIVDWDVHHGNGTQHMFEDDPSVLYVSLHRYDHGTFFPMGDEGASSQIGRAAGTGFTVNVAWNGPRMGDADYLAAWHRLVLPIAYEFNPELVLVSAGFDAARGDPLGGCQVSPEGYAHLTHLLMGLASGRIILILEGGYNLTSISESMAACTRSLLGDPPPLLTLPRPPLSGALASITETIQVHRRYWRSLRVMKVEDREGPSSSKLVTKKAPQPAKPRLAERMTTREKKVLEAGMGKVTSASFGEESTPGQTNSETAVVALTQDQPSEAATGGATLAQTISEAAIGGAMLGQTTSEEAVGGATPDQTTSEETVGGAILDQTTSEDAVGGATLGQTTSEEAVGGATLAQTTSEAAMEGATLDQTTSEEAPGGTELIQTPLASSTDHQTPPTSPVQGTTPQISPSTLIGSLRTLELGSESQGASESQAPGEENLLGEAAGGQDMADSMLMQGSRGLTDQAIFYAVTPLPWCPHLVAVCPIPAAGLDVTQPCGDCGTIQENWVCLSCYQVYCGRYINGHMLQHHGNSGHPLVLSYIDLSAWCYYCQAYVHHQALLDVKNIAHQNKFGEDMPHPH

HDAC3 = target: T2, HDAC3 (Homo sapiens, UniProt O15379); test: In vitro HDAC enzyme assay (Reaction Biology Corporation), HDAC3; type: biochemical; details: Table 2 isozyme screen; duplicate, SD < 15%
T2 construct: purchased Reaction Biology Corporation

HDAC4 = target: T3, HDAC4 (Homo sapiens, UniProt P56524); test: In vitro HDAC enzyme assay (Reaction Biology Corporation), HDAC4; type: biochemical; details: Table 2 isozyme screen; duplicate, SD < 15%
T3 construct: purchased Reaction Biology Corporation

[1] = test system: acetylated histone 3 (H3); test: Western blot, acetylated histone 3 in RPMI-8226 cells; type: cell-based, human; details: 24 h, 1, 5, and 10 μM
Protocol: RPMI-8226 cells (1 × 10^6) were seeded overnight and incubated with compound 8f for 24 h on indicated concentrations. Cell extract was prepared by lysing cultured cells with a mammalian protein extraction reagent supplemented with EDTA-free protease inhibitor for 15 min. SDS-PAGE and immunoblot analysis were conducted as described. Antibodies for Ac-H3 (abcom, AB32129) and Ac-ɑ-tubulin (Cell Signaling, 2144) were used.

HOP-92 = test: NCI-60 antiproliferative screening, HOP-92; type: cell-based; details: Homo sapiens, HOP-92 (Non-Small Cell Lung Cancer), read-out: Inhibition% values at 10 μM concentration
From the text: (§1) Then, 8f was submitted to NCI for antiproliferative evaluation against 59 different tumor cell lines. The cancer types of the NCI-60 program include leukemia, non-small cell lung cancer (NSCLC), colon cancer, CNS cancer, melanoma, ovary cancer, renal cancer, prostate cancer, and breast cancer.

HCT-116 = test: NCI-60 antiproliferative screening, HCT-116; type: cell-based; details: Homo sapiens, HCT-116 (Colon Cancer), read-out: Inhibition% values at 10 μM concentration
From the text: as §1

HT29 = test: NCI-60 antiproliferative screening, HT29; type: cell-based; details: Homo sapiens, HT-29, HT29 (Colon Cancer), read-out: Inhibition% values at 10 μM concentration
From the text: as §1

KM12 = test: NCI-60 antiproliferative screening, KM12; type: cell-based; details: Homo sapiens, KM12 (Colon Cancer), read-out: Inhibition% values at 10 μM concentration
From the text: as §1

SF-268 = test: NCI-60 antiproliferative screening, SF-268; type: cell-based; details: Homo sapiens, SF-268 (CNS Cancer), read-out: Inhibition% values at 10 μM concentration
From the text: as §1

LOX IMVI = test: NCI-60 antiproliferative screening, LOX IMVI; type: cell-based; details: Homo sapiens, LOX IMVI (Melanoma), read-out: Inhibition% values at 10 μM concentration
From the text: as §1

M14 = test: NCI-60 antiproliferative screening, M14; type: cell-based; details: Homo sapiens, M14 (Melanoma), read-out: Inhibition% values at 10 μM concentration
From the text: as §1

SK-MEL-5 = test: NCI-60 antiproliferative screening, SK-MEL-5; type: cell-based; details: Homo sapiens, SK-MEL-5 (Melanoma), read-out: Inhibition% values at 10 μM concentration
From the text: as §1

UACC-62 = test: NCI-60 antiproliferative screening, UACC-62; type: cell-based; details: Homo sapiens, UACC-62 (Melanoma), read-out: Inhibition% values at 10 μM concentration
From the text: as §1

SK-OV-3 = test: NCI-60 antiproliferative screening, SK-OV-3; type: cell-based; details: Homo sapiens, SK-OV-3 (Ovarian Cancer), read-out: Inhibition% values at 10 μM concentration
From the text: as §1

A498 = test: NCI-60 antiproliferative screening, A498; type: cell-based; details: Homo sapiens, A498 (Renal Cancer), read-out: Inhibition% values at 10 μM concentration
From the text: as §1

MCF7 = test: NCI-60 antiproliferative screening, MCF7; type: cell-based; details: Homo sapiens, MCF7 (Breast Cancer), read-out: Inhibition% values at 10 μM concentration
From the text: as §1

MDA-MB-231/ATCC = test: NCI-60 antiproliferative screening, MDA-MB-231/ATCC; type: cell-based; details: Homo sapiens, MDA-MB-231/ATCC (Breast Cancer), read-out: Inhibition% values at 10 μM concentration
From the text: as §1

MDA-MB-468 = test: NCI-60 antiproliferative screening, MDA-MB-468; type: cell-based; details: Homo sapiens, MDA-MB-468 (Breast Cancer), read-out: Inhibition% values at 10 μM concentration
From the text: as §1

T3 sequence (P56524 whole entry): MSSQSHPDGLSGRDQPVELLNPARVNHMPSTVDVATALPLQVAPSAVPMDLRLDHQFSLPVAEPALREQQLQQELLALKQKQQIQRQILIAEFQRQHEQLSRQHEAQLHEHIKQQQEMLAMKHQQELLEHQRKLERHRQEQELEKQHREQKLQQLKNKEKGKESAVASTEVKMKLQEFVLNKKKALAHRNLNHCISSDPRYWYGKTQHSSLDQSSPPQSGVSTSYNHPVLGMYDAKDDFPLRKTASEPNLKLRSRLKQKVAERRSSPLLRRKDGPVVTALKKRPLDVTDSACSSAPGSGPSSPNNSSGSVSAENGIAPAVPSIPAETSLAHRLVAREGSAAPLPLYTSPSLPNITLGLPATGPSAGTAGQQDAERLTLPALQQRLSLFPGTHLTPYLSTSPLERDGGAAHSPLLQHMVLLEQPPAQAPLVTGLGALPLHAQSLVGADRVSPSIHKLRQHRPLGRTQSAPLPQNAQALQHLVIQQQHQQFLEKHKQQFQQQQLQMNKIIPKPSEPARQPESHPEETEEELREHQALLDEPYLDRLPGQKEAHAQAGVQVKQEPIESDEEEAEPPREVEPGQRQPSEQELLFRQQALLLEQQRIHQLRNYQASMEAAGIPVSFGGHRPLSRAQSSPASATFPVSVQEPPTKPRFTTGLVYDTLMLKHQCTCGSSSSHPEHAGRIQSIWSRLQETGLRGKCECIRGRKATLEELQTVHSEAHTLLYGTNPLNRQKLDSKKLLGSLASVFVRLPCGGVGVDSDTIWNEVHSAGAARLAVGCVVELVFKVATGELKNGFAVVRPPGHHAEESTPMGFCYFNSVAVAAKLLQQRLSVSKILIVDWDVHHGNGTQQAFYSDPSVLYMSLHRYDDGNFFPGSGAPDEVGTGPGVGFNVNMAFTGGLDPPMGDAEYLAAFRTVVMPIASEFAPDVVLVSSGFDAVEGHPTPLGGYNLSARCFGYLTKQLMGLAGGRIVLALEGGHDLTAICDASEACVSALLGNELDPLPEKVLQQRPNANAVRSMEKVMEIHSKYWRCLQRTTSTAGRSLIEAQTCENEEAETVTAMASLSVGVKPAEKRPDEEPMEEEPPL
T2 sequence (O15379 whole entry): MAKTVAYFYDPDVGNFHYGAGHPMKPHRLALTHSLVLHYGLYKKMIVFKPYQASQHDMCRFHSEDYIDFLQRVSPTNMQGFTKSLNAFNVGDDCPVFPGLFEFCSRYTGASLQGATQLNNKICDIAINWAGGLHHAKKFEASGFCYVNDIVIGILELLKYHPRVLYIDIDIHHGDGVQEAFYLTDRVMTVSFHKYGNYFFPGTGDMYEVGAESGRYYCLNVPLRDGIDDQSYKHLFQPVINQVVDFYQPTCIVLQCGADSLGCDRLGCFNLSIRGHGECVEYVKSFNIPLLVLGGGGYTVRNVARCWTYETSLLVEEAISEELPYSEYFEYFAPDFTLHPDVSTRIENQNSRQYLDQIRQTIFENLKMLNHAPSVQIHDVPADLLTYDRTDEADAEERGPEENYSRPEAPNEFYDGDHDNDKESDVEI
T2 sequence (Q9Y618 395-489 partner limits assumed): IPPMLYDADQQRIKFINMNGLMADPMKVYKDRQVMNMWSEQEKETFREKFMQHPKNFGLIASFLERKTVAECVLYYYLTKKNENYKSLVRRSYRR

## COc1cccc(-c2nc3c(c(-c4cccc(OC)c4)n2)CCN(C(=O)CCCCCCC(=O)NO)C3)c1 [Compound 8f, 8-(2,4-Bis(3-methoxyphenyl)-5,8-dihydropyrido [3,4-d]pyrimidin-7(6H)-yl)-N-hydroxy-8-oxooctanamide]
HDAC6; HDAC6 over other HDAC subtypes
  selectivity over other subtypes: > 48 fold
HDAC6; Table 1, HDAC6 against HDAC1
  Selectivity Index: 48
HDAC6; Table 1, duplicate, SD < 15%
  IC50: 6.4 nM
HDAC3
  IC50: 411 nM
HDAC4
  HDAC4 IC50: poor activity
  IC50: > 10000 nM
[1]
  levels of acetylated histone 3 (H3): only modest changes
HOP-92
  inhibition at 10 µM: 100%
HCT-116
  inhibition at 10 µM: 96%
HT29
  inhibition at 10 µM: 95.3%
KM12
  inhibition at 10 µM: 88.4%
SF-268
  inhibition at 10 µM: 92.2%
LOX IMVI
  inhibition at 10 µM: 100%
M14
  inhibition at 10 µM: 90.5%
SK-MEL-5
  inhibition at 10 µM: 100%
UACC-62
  inhibition at 10 µM: 100%
SK-OV-3
  inhibition at 10 µM: 100%
A498
  inhibition at 10 µM: 100%
MCF7
  inhibition at 10 µM: 92.1%
MDA-MB-231/ATCC
  inhibition at 10 µM: 100%
MDA-MB-468
  inhibition at 10 µM: 100%
